From publication PMC7914367, “Dual-ligand supramolecular nanofibers inspired by the renin-angiotensin system for the targeting and synergistic therapy of myocardial infarction” (Theranostics, 2021) come the findings set out here.

Square brackets hold non-standard residues; d marks the D form. Ends that are not written are not given here. Peptide text beside a SMILES is read from it. * marks the point of attachment. NBD = O=[N+]([O-])c1ccc(*)c2nonc12; βAla = NCCC(=O)O

As usually defined, the Kd is the equilibrium constant for the complex coming apart.

Data set [1] concerns the target T1, recombinant human MasR (rhMasR) (Homo sapiens, UniProt P04201).
T1 construct: purchased Abnova H00004142-G01
T1 sequence (P04201 1-325): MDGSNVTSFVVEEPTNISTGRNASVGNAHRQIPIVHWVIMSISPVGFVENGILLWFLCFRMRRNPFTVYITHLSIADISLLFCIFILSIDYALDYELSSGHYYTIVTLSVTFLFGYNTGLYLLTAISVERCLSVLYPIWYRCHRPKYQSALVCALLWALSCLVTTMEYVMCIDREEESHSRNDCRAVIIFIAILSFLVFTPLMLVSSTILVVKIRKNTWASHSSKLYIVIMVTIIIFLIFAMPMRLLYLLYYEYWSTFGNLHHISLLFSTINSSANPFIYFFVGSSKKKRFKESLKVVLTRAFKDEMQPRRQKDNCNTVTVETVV
The data set is described as follows: Surface plasmon resonance imaging (SPRi) binding. As to conditions: rhMasR immobilized on CM5 chip, analytes 0.001-10 μM in PBS. (In general: In SPR one partner is held on a chip, and binding of the other changes the refractive index at the surface.)

Data set [2] has as its system NRCMs. The data set is described as follows: TUNEL staining of OGD NRCMs. In kind it is cell-based, rat. As to conditions: 10 μM, 2-3 h, OGD group 26.70%, n = 3.
The test system of data set [3] is MI mouse model. As to the kind of experiment: Masson's trichrome staining, infarct size. The class given is in vivo, C57BL/6 mice. As to conditions: MI mice, 4 weeks, collagen area/LV area, MI group 36.60%, vehicle 1219.84 μg/kg, n = 5. How it is done:
Adult male C57BL/6 mice (20-30 g, 8-10 week) were purchased from the laboratory animal center of Southern Medical University, China. The protocols were approved according to the Zhujiang Hospital of Southern Medical University animal care and use committee guidelines, which conform to the guide for the care and use of laboratory animals published by the US National Institutes of Health (8th edition, 2011). […] Next, 100 µL of different drugs were administered intravenously through tail vein injection every 2 days for 3 weeks, while the mice in the Sham and MI groups were treated with an equal volume of PBS.
The mice were sacrificed at 4 weeks after the induction of MI, and hearts and major organs were harvested and fixed in 4% paraformaldehyde overnight and embedded in paraffin. The hearts were sectioned to 5 µm along the short axis transversely across the infarct zone. The major organs were sectioned to 5 µm along the short axis. Following deparaffinization and dehydration, the samples underwent H&E and Masson's trichrome staining. The sections were observed under a microscope to evaluate the therapeutic effect and safety of the drugs. The collagen and LV areas were measured using the Image-Pro Plus software (version 6.0; Media Cybernetics, Silver Spring, MD, USA). Infarct size (%) was calculated as the ratio of the collagen area to the LV area.

The test system of data set [4] is MI mouse model. The data set is described as follows: In vivo mechanism: caspase-3 IHC, α-SMA immunofluorescence, type I collagen, TGF-β1, serum cytokines. Set-up: species or system C57BL/6 mice. The note with it: MI mice, 4 weeks post-treatment, immunofluorescence, n = 5. The protocol:
Frozen sections were prepared in vivo, as described previously. For drugs distribution, near-infrared laser imager (GE Amersham Typhoon, Sweden) was used to capture full cross section of hearts. For co-localization experiments, the mice hearts were dissected 24 h post-injection of drugs. Anti-AT1R primary antibody (1:200 dilution) was used as the primary antibody. For fibrosis investigation, the frozen sections were incubated with primary antibodies against α-SMA (1:400 dilution). The staining signals were visualized using FITC-labeled Goat Anti-Rabbit IgG (1:200 dilution) or Cy3-labeled Goat Anti-Rabbit IgG (1:200 dilution). The sections were counterstained with DAPI and examined under a laser confocal scanning microscope (Leica TCS SP8, Germany).
The heart tissues were fixed in 4% paraformaldehyde, dehydrated in ethanol, cleared in xylene, and embedded in paraffin. The samples were then cut into 6 μm sections on a microtome and deparaffinized. The sections were blocked by incubating with 1% BSA at room temperature for 30 min and then incubated overnight with anti-cleaved caspase-3 (1:700 dilution), anti-AT1R (1:100 dilution), anti-Collagen I (1:200 dilution) at 4 °C. Next, the sections were washed and incubated with secondary antibodies (1:500 dilution) at room temperature. The tissue sections were incubated with diaminobenzidine and counterstained with hematoxylin, dehydrated, and mounted before viewing under a microscope.
The serum and CM were collected at the indicated time points from the different groups of mice. The levels of TNF-α, IL-6, ALT, Cre, and TGF-β1 were measured using ELISA kits according to the manufacturer's protocol. The absorbance was measured at 450 nm using a microplate reader.

Data set [5] concerns the target T2, AT1R (Rattus norvegicus, UniProt P25095).
T2 construct: NRCMs under OGD conditions expressed high levels of AT1R (red fluorescence); endogenous in cells; host or cells: primary neonatal rat cardiomyocytes (NRCMs) from Sprague-Dawley rats, normoxia or OGD
T2 sequence (P25095 1-359): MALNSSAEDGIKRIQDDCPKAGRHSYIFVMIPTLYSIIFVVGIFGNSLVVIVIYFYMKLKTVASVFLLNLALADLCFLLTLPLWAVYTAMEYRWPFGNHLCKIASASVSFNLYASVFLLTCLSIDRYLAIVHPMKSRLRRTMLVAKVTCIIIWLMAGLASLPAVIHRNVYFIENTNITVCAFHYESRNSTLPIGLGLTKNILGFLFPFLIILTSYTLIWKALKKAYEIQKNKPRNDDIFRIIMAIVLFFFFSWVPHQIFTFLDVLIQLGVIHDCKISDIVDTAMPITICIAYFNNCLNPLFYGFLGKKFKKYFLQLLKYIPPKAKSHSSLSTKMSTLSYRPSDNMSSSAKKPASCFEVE
As to the kind of experiment: Fluorescent co-localization with AT1R in NRCMs. In kind it is cell-based. The note with it: OGD-conditioned NRCMs, 50 μM, 2 h, microscopy.
Method: Next, the cells were blocked by incubating with goat serum for 30 min and incubated with primary antibodies overnight at 4 °C. The primary antibodies used here included anti-AT1R (1:200 dilution), anti-cTNT (1:500 dilution), anti-P65 (1:800 dilution), and anti‐α-SMA (1:400 dilution). The cells were incubated with FITC-labeled Goat Anti-Rabbit IgG (1:200 dilution) or Cy3-labeled Goat Anti-Mouse IgG (1:200 dilution) for 2 h at room temperature. The cells were counterstained with DAPI and imaged using a fluorescence microscope (Leica Dmi8, Germany).
(50 μM), SAA1-7+Tel (50 μM) and NBDAng1-7+Tel (50 μM) for further 2 h. PBS was then used to wash cells for three times and 4% paraformaldehyde was added to fix cells for 20 min at room temperature. After being blocked with goat serum for 30 min, rabbit anti-AT1R primary antibody (1:200 dilution) was added to incubat e wit h NRCMs overnight at 4 ℃. After being washed with PBS for three times, Cy3-labeled Goat Anti-Rabbit IgG (1:200 solut ion) was added and incubated with cells for 2 h at room temperature. Cells were then stained with DAPI. The fluorescence i mages were obtained by the fluorescence microscope (λexc =532 nm for AT1R, λexc = 488 nm for NBD, λexc = 405 nm for DAPI).

The nature of data set [6]: TEM of nanofibers (diameter). As to conditions: SAA1-7 hydrogel, 1.0 wt% in PBS pH 7.4, heat-cooling. In kind it is physicochemical. The source says:
To construct the dual-ligand supramolecular nanofibers, we designed and synthesized a peptide molecule NBD-^DF^DF^DY^DE^DEG-DRVYIHP (SAA1-7, Figure 1A & Figure S1) as a hydrogelator. […] SAA1-7 could self-assemble into a transparent hydrogel in PBS (pH 7.4) at a concentration of 1.0 wt% via a simple heat-cooling process, in which we observed uniform nanofibers with diameters of 7.6 ± 1.8 nm using transmission electron microscopy (TEM) (Figure S2). The drug loading efficiency and the stability of nanocarriers are attributed to the affinity between amphiphilic peptides and hydrophobic molecules. […] We measured the encapsulation efficiency (EE) and drug loading (DL) of TDCNfs. […]
Subsequently, we studied the co-assembly behaviors and the underlying mechanism of TDCNfs. […] We monitored and compared the nanostructures in the process of hydrogelation at different time points by TEM. […]
(§1) DL and EE were calculated using the following equation. […]
dissolved in PBS (5 mL) and th e pH was adjusted to 7.4. […] Next, 500 μL of the sample was removed at each time point and the rel ease of Tel was analyzed, while the remained SAA1-7 in the sample was analyzed using LC-MS […]
(§2) The CMC values were determined by dynamic light scattering (DLS) and the light scattering intensity was recorded for each concentration. […]

Data set [7] in a line: Critical micelle concentration by dynamic light scattering. The class given is physicochemical. As to conditions: gradient concentrations in MilliQ water. How it is done:
The details are given in Supporting Information.
S1.3 Drug Loading and Encapsulation Efficiency
Tel (dissolved in DMSO) was mixed with SAA1-7 (dissolved in PBS) (pH 7.4, 10 mg/mL) at molar ratios of 15%, 30%, 50%, and 70% (n = 3). After preparation, the mixtures were analy zed using LC-MS (LCMS-20AD, Shimadzu) after lyo philization.
as §1
dissolved in PBS (5 mL) and th e pH was adjusted to 7.4. Proteinase K was added at a concentration of 0.138 mg/mL and the reaction m ixtures were incubated at 37 °C for 24 h. Next, 500 μL of the sample was removed at each time point and the rel ease of Tel was analyzed, while the remained SAA1-7 in the sample was analyzed using LC-MS […]
S1.4 Transmission electron microscopy
The SAA1-7 with 50% molar ratio of Tel was incubated at 40 ℃ for 0 min, 30 min, 60 min, and 120 min, respectively. TEM samples in different time points were prepared. […]
were prepared. The sample preparation procedures : 10 µL samples of each were placed on a carbon-coated copper grid and in cubated for 30 seconds to allow the peptide nanostructures to adhere to the substrate, then rinsed twice with ultrapure water. […]
as §2

Data set [8] deals with T3, recombinant human MasR (Recombinant Human MAS1 protein) (human) (UniProt P04201).
T3 sequence (P04201 whole entry, looked up): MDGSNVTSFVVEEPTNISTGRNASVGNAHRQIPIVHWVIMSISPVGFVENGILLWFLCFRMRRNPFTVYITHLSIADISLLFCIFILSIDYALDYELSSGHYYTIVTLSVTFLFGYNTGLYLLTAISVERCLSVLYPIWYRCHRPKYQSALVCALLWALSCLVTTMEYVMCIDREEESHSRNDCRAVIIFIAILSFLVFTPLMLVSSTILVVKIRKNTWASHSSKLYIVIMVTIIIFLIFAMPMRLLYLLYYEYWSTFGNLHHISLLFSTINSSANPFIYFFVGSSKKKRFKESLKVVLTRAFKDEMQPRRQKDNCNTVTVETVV
As to the kind of experiment: SPR; SPR imaging (SPRi, PlexArray HT); rhMasR immobilised on a CM5 sensor chip; Ang1-7, SAA1-7 and TDCNfs diluted in PBS at 0.001 to 10 μM.

In the case of `CC[C@H](C)[C@H](NC(=O)[C@H](Cc1ccc(O)cc1)NC(=O)[C@@H](NC(=O)[C@H](CCCNC(=N)N)NC(=O)[C@@H](N)CC(=O)O)C(C)C)C(=O)N[C@@H](Cc1c[nH]cn1)C(=O)N1CCC[C@H]1C(=O)O` [Ang1-7, DRVYIHP], the Kd in data set [1] is 10.3 nM.
On to NBD-DFDFDYDEDEG-YRVIPHD [vehicle], for which the “TUNEL-positive NRCMs” value in data set [2] was determined as 23.5%. Further, the infarct size in data set [3] worked out at 32.92%. Further, in data set [4], the “α-SMA expression in the non-infarcted area” value was “inhibited to a certain extent”.
“NBDAng1-7: Ang1-7 endowed with fluorescence by NBD labeling”: the “co-localization with AT1R” value in data set [5] is given as “slightly overlapped signal”.
Consider `CC[C@H](C)[C@H](NC(=O)[C@H](Cc1ccc(O)cc1)NC(=O)[C@@H](NC(=O)[C@H](CCCNC(=N)N)NC(=O)[C@H](CC(=O)O)NC(=O)CNC(=O)[C@@H](CCC(=O)O)NC(=O)[C@@H](CCC(=O)O)NC(=O)[C@@H](Cc1ccc(O)cc1)NC(=O)[C@@H](Cc1ccccc1)NC(=O)[C@@H](Cc1ccccc1)NC(=O)CCNc1ccc([N+](=O)[O-])c2nonc12)C(C)C)C(=O)N[C@@H](Cc1c[nH]cn1)C(=O)N1CCC[C@H]1C(=O)O` [SAA1-7, NBD-^DF^DF^DY^DE^DEG-DRVYIHP] ({NBD-βAla}-[dF][dF][dY][dE][dE]GDRVYIHP-OH), for which the “nanofiber diameter (TEM)” value in data set [6] is 7.6 ± 1.8 nm. In data set [7], the “critical micelle concentration (CMC)” value was 21.95 µM. Further, in data set [1], the Kd turned out to be 12.6 nM. The “co-localization with AT1R” value in data set [5] is “slightly overlapped signal”.
Regarding {NBD}-[dF][dF][dY][dE][dE]GDRVYIHP (also: co-assembly nanofibers doped with telmisartan) [telmisartan-doped co-assembly nanofibers], in data set [8], the Kd worked out at 16.5 nM and the binding value (RU) is 58.2 RU.
For DRVYIHP [angiotensin 1-7], in that order: 10.3 nM and 65.1 RU.
For {NBD}-[dF][dF][dY][dE][dE]GDRVYIHP [self-assembly angiotensin 1-7 (NBD-DF-DF-DY-DE-DE-G-DRVYIHP)], in that order: 12.6 nM and 62.3 RU.
